≈ marks a conversion by molar mass, not a printed value. Calls of active or inactive are those of the source. The rule behind the calls is not given here.
Columns and labels:
Staphylococcus aureus [1] = assay: Antibacterial activity against […] Staphylococcus aureus ATCC 43300 assessed as growth inhibition after 10 hrs by spectrophotometry; type: functional, organism-based; details: ATCC 43300, 10 h
Staphylococcus aureus [2] = assay: Antibacterial activity against methicillin-resistant Staphylococcus aureus ATCC BAA1680 assessed as growth inhibition after 10 hrs by spectrophotometry; type: functional, organism-based; details: ATCC BAA1680, 10 h
Escherichia coli [3] = assay: Inhibition of MetAP in Escherichia coli AS19 harboring pBACE plasmid assessed as cellular accumulation of unprocessed GST after 50 hrs by mass spectrometry
Escherichia coli [4] = assay: Antibacterial activity against Escherichia coli AS19 assessed as growth inhibition after 10 hrs by spectrophotometry; type: functional, organism-based; details: AS19, 10 h
[5] = Inhibition of Escherichia coli recombinant MetAP expressed in Escherichia coli BL21(DE3) assessed as production of fluorescent aminomethylcoumarin using Met-AMC as substrate by fluorescence assay in presence of […]

Structure (SMILES) | IC50 (Staphylococcus aureus [1]) | MIC90 (Staphylococcus aureus [1]) | IC50 (Staphylococcus aureus [2]) | MIC90 (Staphylococcus aureus [2]) | inhibition (Escherichia coli [3]) | IC50 (Escherichia coli [4]) | MIC90 (Escherichia coli [4]) | IC50 [5]
Oc1ccc(-c2sccc2Cl)cc1O | 25.8 µM | 12 µg/mL (≈ 52.9 µM) | 63.8 µM | 25 µg/mL (≈ 110 µM) | Active | 23.3 µM | 5 µg/mL (≈ 22.1 µM) | 15.4 µM
CCCCc1ccsc1-c1ccc(O)c(O)c1 | 8.2 µM | 5 µg/mL (≈ 20.1 µM) | 12.4 µM | 4 µg/mL (≈ 16.1 µM) |  |  | 5 µg/mL (≈ 20.1 µM) | 37.3 µM
Cc1sc(C)c(-c2ccc(O)c(O)c2)c1Br | 12.2 µM | 18 µg/mL (≈ 60.2 µM) | 23.2 µM | 13 µg/mL (≈ 43.5 µM) |  |  | 5 µg/mL (≈ 16.7 µM) | 63.6 µM
Oc1ccc(-c2ccsc2)cc1O | 11.7 µM | 11 µg/mL (≈ 57.2 µM) | 41.7 µM | 13 µg/mL (≈ 67.6 µM) |  |  | 15 µg/mL (≈ 78 µM) | 38.4 µM
Oc1ccc(-c2sc(Cl)c(Cl)c2Cl)cc1O | 2.8 µM | 1 µg/mL (≈ 3.38 µM) | 1 µM | 0.7 µg/mL (≈ 2.37 µM) |  | 2.3 µM |  | 22.1 µM
CCCc1ccsc1-c1ccc(O)c(O)c1 | 13.9 µM | 16 µg/mL (≈ 68.3 µM) | 33.4 µM | 11 µg/mL (≈ 46.9 µM) |  |  | 4 µg/mL (≈ 17.1 µM) | 49.5 µM
Oc1ccc(-c2cc(Cl)sc2Cl)cc1O | 11.3 µM | 4 µg/mL (≈ 15.3 µM) | 4.6 µM | 2 µg/mL (≈ 7.66 µM) | Active |  | 3 µg/mL (≈ 11.5 µM) | 51.9 µM

Source: ChEMBL document CHEMBL1806415, “Growth inhibition of Escherichia coli and methicillin-resistant Staphylococcus aureus by targeting cellular methionine aminopeptidase” (Eur J Med Chem, 2011)
